Common to all, as to type: cell-based
In assay [1] the test system is Human breast tumor SUM149 cells. Kind of assay: Annexin V/7-AAD apoptosis with or without Z-VAD-FMK. The following applies: 2.5 to 20 μM, 48 h, with Z-VAD-FMK pan-caspases inhibitor. How it is done:
Human breast tumor SUM149 cells were plated in dishes at a concentration of 10^6 cells/[…] Cells were treated with compound 3 or compound 4 (2.5 to 20 μM) for 48 h, with or without Z-VAD-FMK, a pan-caspases inhibitor. Cells were double stained with annexinV-FITC and 7-AAD to measure cell apoptosis.

The test system is the same in assay [2]. Kind of assay: Inhibition of tumor cell growth (alamar blue), SUM149. The following applies: 120 h. How it is done: All biological experiments (Examples 2 to 9) have been performed with recommended cell line specific culture medium. For SUM149 and L226, culture medium is supplemented with 10% Fetal Calf Serum. For HME-1 and MCF-10A, culture medium is supplemented with 5% Horse Serum.
Human breast tumor SUM149 cells (Inflammatory Breast Cancer (IBC) of basal subtype) were plated in a 96 well plate at 3000 cells/100 μL at 37° C. in 5% CO2. Compounds 1, 3, 4, 5, 6, 7, 8, 9, 10, 11, 12, 13, 14 at 10 μM were added at day 0 and day 3. The number of viable cells was determined in triplicate at day 5 by incubating 10 μL of the alamar blue staining solution for 2 hours at 37° C. (FIG. 1).
Human breast tumor SUM149 cells were plated in a 96 well plate at 3000 cells/100 μL at 37° C. in 5% CO2. Serial dilutions of drugs (compounds 1, 3 or 4) ranging from 20 μM to 300 nM were added at day 0 and day 3. The number of viable cells was determined in triplicate at day 5 by incubating 10 μL of the alamar blue staining solution for 2 hours at 37° C. (FIG. 2).
IC50 values of compounds 1-14 for the inhibition of SUM149 and L226 tumor cells growth were measured (according to the experimental procedure of Examples 2 and 3):
Human breast tumor SUM149 cells were plated in a 96 well plate at 3000 cells/100 μL at 37° C. in 5% CO2 in recommended medium containing 10% FCS or in synthetic medium without FCS. Serial dilutions of drug (compound 4) ranging from 10 μM to 0.16 μM were added at day 0 and day 3. The number of viable cells was determined in triplicate at day 5 by incubating 10 μL of the alamar blue staining solution for 2 hours at 37° C. (FIG. 11). The […] in recommended medium containing 10% FCS was measured at 2 μM, while it was measured at 0.6 μM without FCS.
(The colour change of resazurin is a common sign of viable cells or microbes.)

In assay [3] the test system is Thirty eight validated cells lines. The experiment in a line: High throughput cell growth analysis on cell line panel. Conditions: panel of cell lines. How it is done:
Thirty eight validated cells lines, including BXPC3 cells, DU145 cells, OPM2 cells, U-2-OS cells, PLCPRF5 cells, A549 cells, SUM149 cells, HepG2 cells, L389 cells, HGC27 cells, TOV-112D cells, Messa cells, Karpas 299 cells, A498 cells, HCT-116 cells, H1299 cells, Hep2 cells, DLD1 cells, HUT78 cells, AGS cells, A4573 cells, ACHN cells, Panc-1 cells, A375 cells, BT-20 cells, L226 cells, MDAMB231 cells, U118 cells, PC-3 cells, SW579 cells, CLS354-4 cells, Calu-6 cells, U87MG cells, MeWO cells, HUVEC, HME-1 cells, MCF10-A cells and fibroblasts, were plated at 3000 cells/100 μL at 37° C. in 5% CO2 in recommended medium containing 10% FCS.
Compounds 12, 4, 11, 3, 13, 6, 8, 14, 1 and 7, described in the above examples, and DMSO as a control, were tested at various concentrations and % inhibition of cell growth at 10 μM was more particularly studied.

The next assay relates to Cancer stem cells (CSCs). Kind of assay: Aldefluor assay of cancer stem cells (ALDH+ cells), FACS. How it is done: Cancer stem cells (CSCs) are thought to contribute to tumor initiation, maintenance, resistance to therapy, and metastasis progression. Treatment with drugs enrich in resistant CSCs. In vitro, breast CSCs express high level of aldehyde dehydrogenase-1 (ALDH1), which can be detected by using a commercial assay (CSCs are “Aldefluor” positive). Briefly, cells were incubated in Aldefluor assay buffer containing ALDH substrate (BAAA (BODIPY®—aminoacetaldehyde), 1 μmol/L per 1×10^6 cells). Negative control was done in the presence of diethylaminobenzaldehyde (DEAB), a specific ALDH inhibitor. Cells were then incubated for 40 min at 37° C. Cells were analyzed with the LSRII flow cytometer (Becton-Dickinson). PI (Propidium Iodide) exclusion was used to gate viable cells.

[4] abbreviates: calculated on the basis of cell growth inhibition, day 5, alamar blue, read-out: IC50 for the inhibition of SUM149 tumor cells growth.

These results are taken from US9193699B2, “Apoptosis inducing compounds” (INSTITUT NATIONAL DE LA SANTE ET DE LA RECHERCHE MEDICALE …, priority 2011, dated 2015).

Structures are written as SMILES. Like-named read-outs stand apart in the source and are kept apart here.

What is called IC50 is the concentration needed to halve the response being measured. As for `Cc1cc(C)c(C)c(S(=O)(=O)N2CCSC(C)(C)[C@@H]2C(=O)NO)c1C` [Compound 4, (3S)—N-hydroxy-4-[(2,3,5,6-tetramethylphenyl)sulfonyl]-2,2-dimethyl-3-thiomorpholine carboxamide], the “effect of Z-VAD treatment on compound induced apoptosis (Annexin V positive cells)” value in assay [1] was “fully impaired”. The concentration for half-maximal inhibition (IC50) in assay [2] (setting [4]) is 2500 nM; in assay [2] (recommended medium containing 10% FCS, day 5, read-out: IC50 of SUM149 cell growth in recommended medium), 2000 nM; in assay [2] (synthetic medium without FCS, day 5, read-out: IC50 of SUM149 cell growth without FCS), 600 nM.

For `Cc1c(C)c(C)c(S(=O)(=O)N2CCSC(C)(C)[C@@H]2C(=O)NO)c(C)c1C` [Compound 12, (3S)—N-hydroxy-4-[(2,3,4,5,6-pentamethylphenyl)sulfonyl]-2,2-dimethyl-3-thiomorpholine carboxamide], in assay [3], the “cell lines studied that were sensitive” value amounted to 86%. For the same compound, the 50% inhibitory concentration (IC50) in assay [3] (recommended medium containing 10% FCS, read-out: IC50 of cell growth inhibition on cell line panel) was below 1000 nM; in assay [2] (setting [4]), 2500 nM. Further, the “pool of CSC (ALDH+ cells) after treatment” value in the assay on Cancer stem cells (CSCs) (0.6 μM, DMSO control 2.6%) is 0.4%. Further, the “aldefluor ratio (percent ALDH+ cells treated vs DMSO)” value in the assay with Cancer stem cells (CSCs) (FIG. 12B) is on record as “reduces the aldefluor ratio”.
